Source: US20260176290A1, “INHIBITORS OF KRAS(G12D)” (Ranok Therapeutics (Hangzhou) Co. Ltd., priority 2022, published 2026)

Columns and labels:
KRAS (G12D)/SOS1 = molecular target: T1, KRAS (G12D)/SOS1 (Homo sapiens, UniProt P01116, G12D); assay: KRAS (G12D)/SOS1 homogeneous time-resolved fluorescence (HTRF) assay; assay type: binding; settings: absence of GTP, 4° C. for 3 hr
T1 construct: purchased Cisbio 63ADK000CB17PEH
Protocol: 3-fold serial dilutions of each test compound were prepared ranging from 20 μM to 1.02 nM. The test compound was mixed and incubated with reaction components, incubated in a sealed plate at 4° C. for 3 hr and fluorescence was measured using a PerkinElmer Envision plate reader. […]

[1] = system: AGS gastric carcinoma cells [heterozygous G12D]; assay: Cancer cell line proliferation (CellTiter-Glo), AGS; assay type: cell-based; settings: Homo sapiens, 72 hr, read-out: CTG(IC50), ABS-72 H(nM) AGS
Protocol: (§1) The following cancer cell lines were employed: AGS gastric carcinoma [heterozygous G12D] (ATCC, CRL-1739); A-427 lung carcinoma [heterozygous G12D] (ATCC, HTB-53); ASPC1 pancreatic adenocarcinoma [homozygous G12D] (ATCC, CRL-1682) and SW1990 pancreatic adenocarcinoma [homozygous G12D] (ATCC CRL-2172). Cell lines were cultured essentially according to ATCC recommendations.
(§2) AGS, A-427, ASPC1, SW1990, and GP2D cells were plated in 96-well tissue culture plates at 4,000 cells/well and incubated at 37° C./5% CO2 for 72 hr in 100 μl of media. 3-fold serial dilutions of each test compound were prepared ranging from 20 μM to 1.02 nM. Each cell line was then treated with test compounds at various concentrations with a final concentration of 0.5% DMSO/well, and then incubated at 37° C./5% CO2 for 72 hr. 100 μl of CellTiter-Glo® Reagent (Promega Corporation, Madison, WI) was added to each well and processed according manufacturer's protocol. Results were analyzed and IC50 5 values were calculated in GraphPad 7 software.

[2] = system: A-427 lung carcinoma cells [heterozygous G12D]; assay: Cancer cell line proliferation (CellTiter-Glo), A-427; assay type: cell-based; settings: Homo sapiens, A427 cells, 72 hr, read-out: CTG(IC50), ABS-72 H(nM) A427
Protocol: as §1, §2

[3] = system: ASPC1 pancreatic adenocarcinoma cells [homozygous G12D]; assay: Cancer cell line proliferation (CellTiter-Glo), ASPC1; assay type: cell-based; settings: Homo sapiens, ASPC-1 cells, 72 hr, read-out: CTG(IC50), ABS-72 H(nM) ASPC-1
Protocol: as §1, §2

[4] = system: SW1990 pancreatic adenocarcinoma cells [homozygous G12D]; assay: Cancer cell line proliferation (CellTiter-Glo), SW1990; assay type: cell-based; settings: Homo sapiens, 72 hr, read-out: CTG(IC50), ABS-72 H(nM) SW1990
Protocol: as §1, §2

[5] = Oral bioavailability in CD-1 mice; settings: male, CD-1, mouse, blood
Protocol: CD-1 mice were randomly assigned to 6 groups with 3 male mice in each compound group. […] Compounds were orally administered (PO) in a single dose to each mouse in its group. Blood samples were taken within 72 hours. Bioavailability (F %) was determined and by liquid chromatography-mass spectrometry (LC-MS/MS).

T1 sequence (P01116 1-188 isoform P01116-2 G12D): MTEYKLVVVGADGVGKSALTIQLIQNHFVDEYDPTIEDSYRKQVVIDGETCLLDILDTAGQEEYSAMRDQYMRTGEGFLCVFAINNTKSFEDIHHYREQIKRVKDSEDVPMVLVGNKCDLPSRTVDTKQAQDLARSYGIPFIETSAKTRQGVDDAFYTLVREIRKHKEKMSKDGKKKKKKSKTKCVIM

## C#Cc1c(F)ccc2cc(O)cc(-c3ncc4c(N5CC6CCC(C5)N6)nc(OCC5(CN6CCC(F)CC6)CC5)nc4c3F)c12 [Example 1, 4-(4-(3,8-diazabicyclo[3.2.1]octan-3-yl)-8-fluoro-2-((1-((4-fluoropiperidin-1-yl)methyl)cyclopropyl)methoxy)pyrido[4,3-d]pyrimidin-7-yl)-5-ethynyl-6-fluoronaphthalen-2-ol]
KRAS (G12D)/SOS1
  IC50: < 100 nM
[1]
  IC50: < 100 nM
[2]
  IC50: < 100 nM
[3]
  IC50: < 100 nM
[4]
  IC50: < 100 nM
[5]; 25 mg/kg
  bioavailability: 0.8%

## C#Cc1c(F)ccc2cc(O)cc(-c3nc(OC)c4c(N5CC6CCC(C5)N6)nc(OCC5(CN(C)C)CC5)nc4c3F)c12 [Ref. 4, reference compound]
[1]
  IC50: < 100 nM
[5]
  bioavailability: 0.23%

## C#Cc1cccc2cc(O)cc(-c3ncc4c(N5CC6CCC(C5)N6)nc(OCC5(CN6CC[C@H](F)C6)CC5)nc4c3F)c12 [Example 8]
KRAS (G12D)/SOS1
  IC50: < 100 nM
[1]
  IC50: < 100 nM
[2]
  IC50: < 100 nM
[3]
  IC50: < 100 nM
[4]
  IC50: < 100 nM

## C#Cc1c(F)ccc2cc(O)cc(-c3nc(OC)c4c(N5CC6CCC(C5)N6)nc(OCC5(CN6CCC(C#N)C6)CC5)nc4c3F)c12 (stereo not shown) [Example 38]
KRAS (G12D)/SOS1
  IC50: < 100 nM
[1]
  IC50: < 100 nM
[3]
  IC50: < 100 nM
[4]
  IC50: < 100 nM
[5]
  bioavailability: 1.8%

## C#Cc1c(F)ccc2cc(O)cc(-c3nc(OC)c4c(N5CC6CCC(C5)N6)nc(OCC5(CN6CC7C(C6)C7C(F)(F)F)CC5)nc4c3F)c12 (stereo not shown) [Example 41]
KRAS (G12D)/SOS1
  IC50: < 100 nM
[1]
  IC50: < 100 nM
[2]
  IC50: 100 to 1000 nM
[3]
  IC50: < 100 nM
[4]
  IC50: < 100 nM

## C#Cc1c(F)ccc2cc(O)cc(-c3nc(OC)c4c(N5CC6CCC(C5)N6)nc(OCC5(CN6CC7C(C6)C7(F)F)CC5)nc4c3F)c12 (stereo not shown) [Example 49]
KRAS (G12D)/SOS1
  IC50: < 100 nM
[1]
  IC50: < 100 nM
[3]
  IC50: < 100 nM
[4]
  IC50: < 100 nM
[5]
  bioavailability: 3.82%

## C#Cc1c(F)ccc2cc(O)cc(-c3nc(OC(F)F)c4c(N5CC6CCC(C5)N6)nc(OCC5(CN6CCC(C(F)(F)F)CC6)CC5)nc4c3F)c12 [Example 32]
KRAS (G12D)/SOS1
  IC50: < 100 nM
[1]
  IC50: < 100 nM
[2]
  IC50: 100 to 1000 nM
[3]
  IC50: 100 to 1000 nM
[4]
  IC50: < 100 nM

## C#Cc1c(F)ccc2cc(O)cc(-c3nc(OC)c4c(N5CC6CCC(C5)N6)nc(OCC5(CN6CCCC6)CC5)nc4c3F)c12 [Ref. 3, reference compound]
[1]
  IC50: < 100 nM
[5]
  bioavailability: 0.23%

## [2H]C([2H])([2H])Oc1nc(-c2cc(O)cc3ccc(F)c(C#C)c23)c(F)c2nc(OCC3(CN4CC5CC5C4)CC3)nc(N3CC4CCC(C3)N4)c12 (stereo not shown) [Example 4]
KRAS (G12D)/SOS1
  IC50: < 100 nM
[1]
  IC50: < 100 nM
[2]
  IC50: < 100 nM
[3]
  IC50: < 100 nM
[4]
  IC50: < 100 nM
[5]; 25 mg/kg
  bioavailability: 5.4%

## C#Cc1c(F)ccc2cc(O)cc(-c3ncc4c(N5CC6CCC(C5)N6C(=O)OC(C)OC(C)=O)nc(OCC5(CN6CCC(F)CC6)CC5)nc4c3F)c12 (stereo not shown) [Example 52]
KRAS (G12D)/SOS1
  IC50: < 100 nM
[1]
  IC50: < 100 nM
[2]
  IC50: 100 to 1000 nM
[3]
  IC50: < 100 nM
[4]
  IC50: < 100 nM

## C#Cc1c(F)ccc2cc(O)cc(-c3ncc4c(N5CC6CCC(C5)N6)nc(OCC5(CN6CC7C(C#N)C7C6)CC5)nc4c3F)c12 (stereo not shown) [Example 44]
KRAS (G12D)/SOS1
  IC50: < 100 nM
[1]
  IC50: < 100 nM
[2]
  IC50: 100 to 1000 nM
[3]
  IC50: < 100 nM
[4]
  IC50: < 100 nM
[5]
  bioavailability: 2.38%

## C#Cc1c(F)ccc2cc(O)cc(-c3ncc4c(N5CC6CCC(C5)N6)nc(OCC5(CN6CCC(C(F)(F)F)CC6)CC5)nc4c3F)c12 [Example 14]
KRAS (G12D)/SOS1
  IC50: < 100 nM
[1]
  IC50: < 100 nM
[2]
  IC50: < 100 nM
[3]
  IC50: < 100 nM
[4]
  IC50: < 100 nM
[5]
  bioavailability: 5.81%

## C#Cc1c(F)ccc2cc(O)cc(-c3nc(OC)c4c(N5CC6CCC(C5)N6)nc(OCC5(CN6CC7C(C#N)C7C6)CC5)nc4c3F)c12 (stereo not shown) [Example 51]
KRAS (G12D)/SOS1
  IC50: < 100 nM
[1]
  IC50: < 100 nM
[3]
  IC50: < 100 nM
[4]
  IC50: < 100 nM
[5]
  bioavailability: 2.3%

## C#Cc1c(F)ccc2cc(O)cc(-c3nc(OC4CC4)c4c(N5CC6CCC(C5)N6)nc(OCC5(CN6CCC(C(F)(F)F)CC6)CC5)nc4c3F)c12 [Example 31]
KRAS (G12D)/SOS1
  IC50: < 100 nM
[1]
  IC50: < 100 nM
[2]
  IC50: 100 to 1000 nM
[3]
  IC50: < 100 nM
[4]
  IC50: < 100 nM

## C#Cc1c(F)ccc2cc(O)cc(-c3ncc4c(N5CC6CCC(C5)N6)nc(OCC5(CN6CC7CC7(C#N)C6)CC5)nc4c3F)c12 (stereo not shown) [Example 21]
KRAS (G12D)/SOS1
  IC50: < 100 nM
[1]
  IC50: < 100 nM
[2]
  IC50: 100 to 1000 nM
[3]
  IC50: 100 to 1000 nM
[4]
  IC50: < 100 nM

## C#Cc1c(F)ccc2cc(O)cc(-c3ncc4c(N5CC6CCC(C5)N6)nc(OCC5(CN6CC7C(C6)C7C(F)(F)F)CC5)nc4c3F)c12 (stereo not shown) [Example 37]
KRAS (G12D)/SOS1
  IC50: < 100 nM
[1]
  IC50: < 100 nM
[2]
  IC50: 100 to 1000 nM
[3]
  IC50: < 100 nM
[4]
  IC50: < 100 nM
[5]
  bioavailability: 10.6%

## C#Cc1c(F)ccc2cc(O)cc(-c3nc(OC)c4c(N5CC6CCC(C5)N6)nc(OCC5(CN6CCC(F)CC6)CC5)nc4c3F)c12 [Example 19]
KRAS (G12D)/SOS1
  IC50: < 100 nM
[1]
  IC50: < 100 nM
[2]
  IC50: < 100 nM
[3]
  IC50: < 100 nM
[4]
  IC50: < 100 nM
[5]
  bioavailability: 9.39%

## C#Cc1c(F)ccc2cc(O)cc(-c3ncc4c(N5CC6CCC(C5)N6)nc(OCC5(CN6CCC(OC(F)(F)F)CC6)CC5)nc4c3F)c12 [Example 20]
KRAS (G12D)/SOS1
  IC50: < 100 nM
[1]
  IC50: < 100 nM
[2]
  IC50: 100 to 1000 nM
[3]
  IC50: < 100 nM
[4]
  IC50: < 100 nM

## C#Cc1c(F)ccc2cc(O)cc(-c3nc(OC)c4c(N5CC6CCC(C5)N6)nc(OCC5(CN6CCC6)CC5)nc4c3F)c12 [Ref. 2, reference compound]
KRAS (G12D)/SOS1
  IC50: < 100 nM
[1]
  IC50: < 100 nM
[3]
  IC50: 100 to 1000 nM
[4]
  IC50: 100 to 1000 nM
[5]; 25 mg/kg
  bioavailability: 0.15%

## C#Cc1c(F)ccc2cc(O)cc(-c3ncc4c(N5CC6CCC(C5)N6)nc(OCC5(CN6CC7CC7C6)CC5)nc4c3F)c12 (stereo not shown) [Example 13]
KRAS (G12D)/SOS1
  IC50: < 100 nM
[1]
  IC50: < 100 nM
[2]
  IC50: < 100 nM
[3]
  IC50: < 100 nM
[4]
  IC50: < 100 nM
[5]
  bioavailability: 1.98%

## C#Cc1c(F)ccc2cc(O)cc(-c3nc(OC(C)C)c4c(N5CC6CCC(C5)N6)nc(OCC5(CN6CCC(C(F)(F)F)CC6)CC5)nc4c3F)c12 [Example 29]
KRAS (G12D)/SOS1
  IC50: < 100 nM
[1]
  IC50: < 100 nM
[2]
  IC50: 100 to 1000 nM
[3]
  IC50: < 100 nM
[4]
  IC50: < 100 nM

## C#Cc1c(F)ccc2cc(O)cc(-c3nc(N(C)C)c4c(N5CC6CCC(C5)N6)nc(OCC5(CN6CCC(F)CC6)CC5)nc4c3F)c12 [Example 23]
KRAS (G12D)/SOS1
  IC50: 100 to 1000 nM
[1]
  IC50: > 1000 nM
[2]
  IC50: > 1000 nM
[3]
  IC50: > 1000 nM
[4]
  IC50: > 1000 nM

## C#Cc1c(F)ccc2cc(O)cc(-c3nc(Cl)c4c(N5CC6CCC(C5)N6)nc(OCC5(CN6CCC(C(F)(F)F)CC6)CC5)nc4c3F)c12 [Example 36]
KRAS (G12D)/SOS1
  IC50: < 100 nM
[1]
  IC50: < 100 nM
[2]
  IC50: 100 to 1000 nM
[3]
  IC50: < 100 nM
[4]
  IC50: < 100 nM

## C#Cc1c(F)ccc2cc(O)cc(-c3nc(OC)c4c(N5CC6CCC(C5)N6)nc(OCC5(CN6CCC7CC76)CC5)nc4c3F)c12 (stereo not shown) [Example 43]
KRAS (G12D)/SOS1
  IC50: < 100 nM
[1]
  IC50: < 100 nM
[2]
  IC50: 100 to 1000 nM
[3]
  IC50: < 100 nM
[4]
  IC50: < 100 nM
[5]
  bioavailability: 2.37%

## C#Cc1c(F)ccc2cc(O)cc(-c3ncc4c(N5CC6CCC(C5)N6)nc(OCC5(CN6CC=C(C(F)(F)F)CC6)CC5)nc4c3F)c12 [Example 26]
KRAS (G12D)/SOS1
  IC50: < 100 nM
[1]
  IC50: < 100 nM
[2]
  IC50: 100 to 1000 nM
[3]
  IC50: < 100 nM
[4]
  IC50: < 100 nM
